# According to patent publication US20250230193A1, “CYCLIC COMPOUND HAVING SELECTIVE KRAS INHIBITORY EFFECT ON HRAS AND NRAS” (CHUGAI SEIYAKU KABUSHIKI KAISHA, priority 2022, published 2025):
# *1 amine or outer side, *2 acyl side, *3 side chain or, on linkers, in order; H or OH if unused. Where a SMILES comes first, the peptide text is derived from it. Bridges are numbered along the chain shown (N, C = ends). [ ]: non-standard residue; d: D form. The star is where a group is joined. hPhe(3-Cl-4-CF3) = N[C@@H](CCc1ccc(C(F)(F)F)c(Cl)c1)C(=O)O; X39 = Cc1ccc(C[C@@H](C(=O)[*:2])N(CC(C)C)[*:1])cc1; NMePhe(4-Me) = CN[C@@H](Cc1ccc(C)cc1)C(=O)O; NMeGly(cPent) = CN[C@H](C(=O)O)C1CCCC1; NMeD = CN[C@@H](CC(=O)O)C(=O)O; NMeL = CN[C@@H](CC(C)C)C(=O)O; Morpholide = C1CN(*)CCO1; Ac5c = NC1(C(=O)O)CCCC1; NEtG = CCNCC(=O)O; Sar = CNCC(=O)O
# Columns and labels:
# [1] = biological target: GDP-bound HRAS wild-type protein (Homo sapiens, UniProt P01112); experiment: Binding to HRAS by surface plasmon resonance (SPR), Single Cycle Kinetics; conditions: SPR; for HRAS/KRAS (ratio of KD value with respect to HRAS to KD value with respect to KRAS): GDP-bound HRAS wild-type vs GDP-bound KRAS wild-type
# [2] = biological target: GDP-bound NRAS wild-type protein (Homo sapiens, UniProt P01111); experiment: Binding to NRAS by surface plasmon resonance (SPR), Single Cycle Kinetics; conditions: SPR; for NRAS/KRAS (ratio of KD value with respect to NRAS to KD value with respect to KRAS): GDP-bound NRAS wild-type vs GDP-bound KRAS wild-type
# GDP-bound NRAS wild-type protein, sequence (P01111 whole entry): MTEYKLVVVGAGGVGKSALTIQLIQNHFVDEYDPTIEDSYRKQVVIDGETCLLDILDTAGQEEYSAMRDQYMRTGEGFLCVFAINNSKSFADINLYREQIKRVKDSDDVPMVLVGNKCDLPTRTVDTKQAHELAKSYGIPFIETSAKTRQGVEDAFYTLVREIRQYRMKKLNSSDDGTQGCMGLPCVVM
# GDP-bound HRAS wild-type protein, sequence (P01112 whole entry): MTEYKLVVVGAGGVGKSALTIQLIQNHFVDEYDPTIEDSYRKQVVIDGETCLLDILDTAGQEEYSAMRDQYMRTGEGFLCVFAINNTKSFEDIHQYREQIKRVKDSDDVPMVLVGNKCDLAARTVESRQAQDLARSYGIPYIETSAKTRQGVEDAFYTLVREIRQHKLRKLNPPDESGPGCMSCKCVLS
compound,measurement,setting,value
CCO[C@@H]1C[C@H]2C(=O)NC3(CCC3)C(=O)N(C)[C@@H](C3CCCC3)C(=O)N(C)[C@H](C(=O)N(C)C)CC(=O)N(C)[C@@H](CC)C(=O)N[C@@H]([C@@H](C)CC)C(=O)N(C)CC(=O)N(C)[C@H]3CCCCN(C3=O)[C@@H](Cc3ccc(C(F)(F)F)cc3)C(=O)N(C)CC(=O)N[C@@H](CCc3ccc(Cl)c(Cl)c3)C(=O)N2C1 [PP0987],HRAS/KRAS (ratio of KD value with respect to HRAS to KD value with respect to KRAS),[1]; KD ratio,C (A compound having a KD ratio of 0.1 or more and less than 3 is denoted as C)
same,NRAS/KRAS (ratio of KD value with respect to NRAS to KD value with respect to KRAS),[2]; KD ratio,C (A compound having a KD ratio of 0.1 or more and less than 3 is denoted as C)
CCCOC[C@H]1C(=O)N[C@@H]([C@@H](C)CC)C(=O)N(C)CC(=O)N(C)[C@H]2C/C=C\CCN(C2=O)[C@@H](Cc2ccc(C)cc2)C(=O)N(C)CC(=O)N[C@@H](CCc2ccc(C(F)(F)F)c(Cl)c2)C(=O)N2C[C@H](C)C[C@H]2C(=O)NC2(CC(C)(C)C2)C(=O)N(C)[C@@H](C2CCCC2)C(=O)N(C)[C@H](C(=O)N(C)C)CC(=O)N1C [PP2234],HRAS/KRAS (ratio of KD value with respect to HRAS to KD value with respect to KRAS),[1],A (a compound having 10 or more and less than 20 is denoted as A)
same,NRAS/KRAS (ratio of KD value with respect to NRAS to KD value with respect to KRAS),[2],A (a compound having 10 or more and less than 20 is denoted as A)
CC[C@H](C)[C@@H]1NC(=O)[C@H](CC(C)C)N(C)C(=O)C[C@@H](C(=O)N2CCOCC2)N(C)C(=O)[C@H](C2CCCC2)N(C)C(=O)C2(CCCC2)NC(=O)[C@@H]2CCCN2C(=O)[C@H](CCc2ccc(C(F)(F)F)c(Cl)c2)NC(=O)CN(CC)C(=O)[C@H](Cc2ccc(C)cc2)N(C)C(=O)CN(CC)C(=O)CN(C)C1=O [PP0029] ([NMeL]I[Sar][NEtG][NMePhe(4-Me)][NEtG][hPhe(3-Cl-4-CF3)]P[Ac5c][NMeGly(cPent)][NMeD]-Morpholide; lactam N-11),HRAS/KRAS (ratio of KD for GDP-bound HRAS wild-type to KD for KRAS),[1]; KD ratio HRAS/KRAS,C (A compound having a KD ratio of 0.1 or more and less than 3 is denoted as C)
same,NRAS/KRAS (ratio of KD for GDP-bound NRAS wild-type to KD for KRAS),[2]; KD ratio NRAS/KRAS,C (A compound having a KD ratio of 0.1 or more and less than 3 is denoted as C)
CC[C@H](C)[C@@H]1NC(=O)[C@H](CC(C)C)N(C)C(=O)C[C@@H](C(=O)N2CCC2)N(C)C(=O)[C@H](C2CCCC2)N(C)C(=O)C2(CCCC2)NC(=O)[C@@H]2CCCN2C(=O)[C@H](CCc2cc(F)c(C(F)(F)F)c(F)c2)NC(=O)CN(C)C(=O)[C@H](Cc2ccc(C(F)(F)F)cc2)N2CCCC[C@@H](C2=O)N(C)C(=O)CN(C)C1=O [PP0570],HRAS/KRAS (ratio of KD value with respect to GDP-bound HRAS wild-type protein to KD value with respect to KRAS),[1]; KD ratio HRAS/KRAS,B (a compound having 3 or more and less than 10 is denoted as B)
same,NRAS/KRAS (ratio of KD value with respect to GDP-bound NRAS wild-type protein to KD value with respect to KRAS),[2]; KD ratio NRAS/KRAS,B (a compound having 3 or more and less than 10 is denoted as B)
CCO[C@@H]1C[C@H]2C(=O)NC3(CC(C)(C)C3)C(=O)N(C)[C@@H](C(CC)CC)C(=O)N(C)[C@H](C(=O)N(C)C)CC(=O)N(C)[C@@H](CC(C)C)C(=O)N[C@@H]([C@@H](C)CC)C(=O)N(C)CC(=O)N(C)[C@H]3C/C=C\CCN(C3=O)[C@@H](Cc3ccc(C(F)(F)F)cc3)C(=O)N(C)CC(=O)N[C@@H](CCc3ccc(Cl)c(Cl)c3)C(=O)N2C1 [PP2176],HRAS/KRAS (ratio of KD value with respect to HRAS to KD value with respect to KRAS),[1],A (a compound having 10 or more and less than 20 is denoted as A)
same,NRAS/KRAS (ratio of KD value with respect to NRAS to KD value with respect to KRAS),[2],AA (a compound having 20 or more is denoted as AA)
CC[C@H](C)[C@@H]1NC(=O)[C@H](CC(C)C)N(C)C(=O)C[C@@H](C(=O)N2CCOCC2)N(C)C(=O)[C@H](C2CCCC2)N(C)C(=O)C2(CCCC2)NC(=O)[C@@H]2CCCN2C(=O)[C@H](CCc2ccc(C(F)(F)F)c(Cl)c2)NC(=O)CN(C)C(=O)[C@H](Cc2ccc(C)cc2)N2CCCC[C@@H](C2=O)N(C)C(=O)CN(C)C1=O [PP0316],HRAS/KRAS (ratio of KD for GDP-bound HRAS wild-type to KD for KRAS),[1]; KD ratio HRAS/KRAS,B (a compound having 3 or more and less than 10 is denoted as B)
same,NRAS/KRAS (ratio of KD for GDP-bound NRAS wild-type to KD for KRAS),[2]; KD ratio NRAS/KRAS,C (A compound having a KD ratio of 0.1 or more and less than 3 is denoted as C)
CCO[C@@H]1C[C@H]2C(=O)NC3(CCCC3)C(=O)N(C)[C@@H](C3CCCC3)C(=O)N(C)[C@H](C(=O)N(C)C)CC(=O)N(C)[C@@H](CC(C)C)C(=O)N[C@@H]([C@@H](C)CC)C(=O)N(C)CC(=O)N(C)[C@H]3C/C=C\CCN(C3=O)[C@@H](Cc3ccc(C(F)(F)F)cc3)C(=O)N(C)CC(=O)N[C@@H](CCc3cc(F)c(C(F)(F)F)c(F)c3)C(=O)N2C1 [PP1105],HRAS/KRAS (ratio of KD value with respect to HRAS to KD value with respect to KRAS),[1]; KD ratio,A (a compound having 10 or more and less than 20 is denoted as A)
same,NRAS/KRAS (ratio of KD value with respect to NRAS to KD value with respect to KRAS),[2]; KD ratio,A (a compound having 10 or more and less than 20 is denoted as A)
CC[C@H](C)[C@@H]1NC(=O)[C@H](CC(C)C)N(C)C(=O)C[C@@H](C(=O)N2CCOCC2)N(C)C(=O)[C@H](C2CCCC2)N(C)C(=O)C2(CCCC2)NC(=O)[C@@H]2CCCN2C(=O)[C@H](CCc2ccc(C(F)(F)F)c(Cl)c2)NC(=O)CN(C)C(=O)[C@H](Cc2ccc(C)cc2)N(CC(C)C)C(=O)CN(C)C(=O)CN(C)C1=O [PP0063] ([NMeL]I[Sar][Sar][X39][Sar][hPhe(3-Cl-4-CF3)]P[Ac5c][NMeGly(cPent)][NMeD]-Morpholide; lactam N-11),HRAS/KRAS (ratio of KD for GDP-bound HRAS wild-type to KD for KRAS),[1]; KD ratio HRAS/KRAS,C (A compound having a KD ratio of 0.1 or more and less than 3 is denoted as C)
same,NRAS/KRAS (ratio of KD for GDP-bound NRAS wild-type to KD for KRAS),[2]; KD ratio NRAS/KRAS,C (A compound having a KD ratio of 0.1 or more and less than 3 is denoted as C)
